Molecules are shown by their SMILES.

The target of this assay is T1, Polyunsaturated fatty acid 5-lipoxygenase (Homo sapiens, UniProt P09917).
T1 sequence (P09917 whole entry): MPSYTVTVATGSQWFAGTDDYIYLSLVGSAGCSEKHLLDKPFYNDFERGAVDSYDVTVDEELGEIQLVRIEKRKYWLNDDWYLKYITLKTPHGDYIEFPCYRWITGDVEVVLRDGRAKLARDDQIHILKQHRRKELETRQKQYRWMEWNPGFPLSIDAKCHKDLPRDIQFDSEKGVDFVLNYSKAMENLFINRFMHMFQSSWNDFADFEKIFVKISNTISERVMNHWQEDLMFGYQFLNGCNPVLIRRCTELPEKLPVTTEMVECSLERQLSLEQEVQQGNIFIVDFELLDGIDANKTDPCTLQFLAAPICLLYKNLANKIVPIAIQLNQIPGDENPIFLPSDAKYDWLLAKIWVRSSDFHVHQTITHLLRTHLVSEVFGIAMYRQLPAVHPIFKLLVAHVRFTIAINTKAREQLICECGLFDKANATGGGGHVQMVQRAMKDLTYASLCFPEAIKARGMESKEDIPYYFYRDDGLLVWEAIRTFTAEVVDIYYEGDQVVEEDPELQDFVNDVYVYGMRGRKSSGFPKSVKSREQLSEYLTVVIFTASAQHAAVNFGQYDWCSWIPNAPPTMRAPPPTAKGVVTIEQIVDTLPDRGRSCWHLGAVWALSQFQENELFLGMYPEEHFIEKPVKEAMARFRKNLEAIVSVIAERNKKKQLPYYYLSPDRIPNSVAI
Kind of assay: The compound was tested in vitro for inhibition against 5-lipoxygenase in intact human neutrophils.
`NC(=O)N(O)[C@H]1C[C@H](c2cc3ccccc3s2)C1` returned a half-inhibitory concentration (IC50) of 0.38 µM. Then `CC(/C=C/c1cccc(Oc2ccc(F)cc2)c1)N(O)C(N)=O` (stereo not drawn), with 0.08 µM; and `NC(=O)N(O)[C@H]1C[C@@H](c2cccc(Oc3ccc(F)cc3)c2)C1`, with 0.17 µM.

The IC50 is the concentration needed to halve the response being measured.

The values are drawn from ChEMBL document CHEMBL1127152, “Design and synthesis of achiral 5-lipoxygenase inhibitors employing the cyclobutyl group” (Bioorg Med Chem Lett, 1993).
